≈ marks a conversion by molar mass, not a printed value. Each block holds one molecule with its values, some of them ahead of it.
Tests used:
Format in all cases: functional
Staphylococcus aureus [1] = assay: Minimal bacterial concentration against Staphylococcus aureus was evaluated
Staphylococcus aureus [2] = assay: Minimal inhibitory concentration against Staphylococcus aureus was evaluated
Escherichia coli [3] = assay: Minimal bacterial concentration against Escherichia coli was evaluated; Range = 2-2.5 ug/mL
Staphylococcus aureus [4] = assay: Minimal inhibitory concentration against Staphylococcus aureus was evaluated; Range = 1.5-2 ug/mL
Staphylococcus aureus [5] = assay: Minimal bacterial concentration against Staphylococcus aureus was evaluated; Range = 2-2.5 ug/mL
Staphylococcus aureus [6] = assay: Minimal inhibitory concentration against Staphylococcus aureus was evaluated; Range = 1.5-2.0 ug/mL
Staphylococcus aureus [7] = assay: Minimal inhibitory concentration against Staphylococcus aureus was evaluated; Range = 1-1.5 ug/mL
Staphylococcus aureus [8] = assay: Minimal inhibitory concentration against Staphylococcus aureus was evaluated; Range = 0.5-1.0 ug/mL
Staphylococcus aureus [9] = assay: Minimal bacterial concentration against Staphylococcus aureus was evaluated; Range = 1-1.5 ug/mL
Staphylococcus aureus [10] = assay: Minimal inhibitory concentration against Staphylococcus aureus was evaluated; Range = 0-0.5 ug/mL
Staphylococcus aureus [11] = assay: Minimal bacterial concentration against Staphylococcus aureus was evaluated; Range = 1.0-1.5ug/mL
Escherichia coli [12] = assay: Minimal bacterial concentration against Escherichia coli was evaluated; Range = 1.5-2.0 ug/mL

SMILES: Cc1ccc(C2c3ccc([nH]3)C(c3ccc(C)cc3)c3ccc([nH]3)C(c3ccccc3N)c3ccc([nH]3)C(c3ccc(C)cc3)c3ccc2[nH]3)cc1 (configuration not stated)
MBC (Staphylococcus aureus [1]): > 3 µg/mL | MIC (Staphylococcus aureus [2]): > 2.5 µg/mL

SMILES: C=CC1=C(C)/C2=C/c3[nH]c(c(C)c3C=C)/C=c3\[nH]/c(c(CCC(=O)NCCCCN(CCCN)CCCCN)c3C)=C\C3=NC(CC1=N2)C(C)=C3CCC(=O)NCCCCN(CCCN)CCCCN (configuration not stated)
MBC (Escherichia coli [3]): 2.5 µg/mL (≈ 2.6 µM) | MIC (Staphylococcus aureus [4]): 2 µg/mL (≈ 2.08 µM) | MBC (Staphylococcus aureus [5]): 2.5 µg/mL (≈ 2.6 µM)

SMILES: CC(N)C(=O)Nc1ccccc1C1c2ccc([nH]2)C(c2ccc(O[C@@H]3O[C@@H](CO)[C@@H](O)[C@H](O)[C@@H]3O)cc2)c2ccc([nH]2)C(c2ccc(O[C@@H]3O[C@@H](CO)[C@@H](O)[C@H](O)[C@@H]3O)cc2)c2ccc([nH]2)C(c2ccc(O[C@@H]3O[C@@H](CO)[C@@H](O)[C@H](O)[C@@H]3O)cc2)c2ccc1[nH]2 (some centres not stated)
MBC (Staphylococcus aureus [1]): > 1.5 µg/mL | MIC (Staphylococcus aureus [6]): 2 µg/mL (≈ 1.61 µM)

SMILES: CC(N)C(=O)Nc1ccc(C2c3ccc([nH]3)C(c3ccc(NC(=O)C(C)N)cc3)c3ccc([nH]3)C(c3ccccc3O[C@@H]3O[C@@H](CO)[C@@H](O)[C@H](O)[C@@H]3O)c3ccc([nH]3)C(c3ccc(NC(=O)C(C)N)cc3)c3ccc2[nH]3)cc1 (some centres not stated)
MIC (Staphylococcus aureus [4]): 2 µg/mL (≈ 1.89 µM) | MBC (Staphylococcus aureus [1]): > 1.5 µg/mL

SMILES: CC(N)C(=O)Nc1ccc(C2c3ccc([nH]3)C(c3ccc(NC(=O)C(C)N)cc3)c3ccc([nH]3)C(c3ccc(O[C@@H]4O[C@@H](CO)[C@@H](O)[C@H](O)[C@@H]4O)cc3)c3ccc([nH]3)C(c3ccc(NC(=O)C(C)N)cc3)c3ccc2[nH]3)cc1 (some centres not stated)
MIC (Staphylococcus aureus [7]): 1.5 µg/mL (≈ 1.42 µM) | MBC (Staphylococcus aureus [1]): > 1.5 µg/mL

SMILES: N=C(N)NCCCC(NC(=O)CCCCOc1ccccc1C1c2ccc([nH]2)C(c2ccc(O[C@@H]3O[C@@H](CO)[C@@H](O)[C@H](O)[C@@H]3O)cc2)c2ccc([nH]2)C(c2ccc(O[C@@H]3O[C@@H](CO)[C@@H](O)[C@H](O)[C@@H]3O)cc2)c2ccc([nH]2)C(c2ccc(O[C@@H]3O[C@@H](CO)[C@@H](O)[C@H](O)[C@@H]3O)cc2)c2ccc1[nH]2)C(=O)NCC(=O)NC(CC(=O)O)C(=O)O (some centres not stated)
MIC (Staphylococcus aureus [8]): 1 µg/mL (≈ 0.625 µM) | MBC (Staphylococcus aureus [9]): 1.5 µg/mL (≈ 0.938 µM)

SMILES: N=C(N)NCCCC(NC(=O)CCCOc1ccc(C2c3ccc([nH]3)C(c3ccc(O[C@@H]4O[C@@H](CO)[C@@H](O)[C@H](O)[C@@H]4O)cc3)c3ccc([nH]3)C(c3ccc(O[C@@H]4O[C@@H](CO)[C@@H](O)[C@H](O)[C@@H]4O)cc3)c3ccc([nH]3)C(c3ccc(O[C@@H]4O[C@@H](CO)[C@@H](O)[C@H](O)[C@@H]4O)cc3)c3ccc2[nH]3)cc1)C(=O)NCC(=O)NC(CC(=O)O)C(=O)O (some centres not stated)
MIC (Staphylococcus aureus [8]): 1 µg/mL (≈ 0.631 µM) | MBC (Staphylococcus aureus [9]): 1.5 µg/mL (≈ 0.946 µM)

SMILES: Cc1ccc(C2c3ccc([nH]3)C(c3ccc(C)cc3)c3ccc([nH]3)C(c3ccc(OCCCC(=O)NC(CCCN=C(N)N)C(=O)NCC(=O)NC(CC(=O)O)C(=O)O)cc3)c3ccc([nH]3)C(c3ccc(C)cc3)c3ccc2[nH]3)cc1 (configuration not stated)
MBC (Staphylococcus aureus [1]): > 3 µg/mL | MIC (Staphylococcus aureus [2]): > 2.5 µg/mL

SMILES: Cc1ccc(C2c3ccc([nH]3)C(c3ccc(C)cc3)c3ccc([nH]3)C(c3ccccc3OCCCC(=O)NC(CCCN=C(N)N)C(=O)NCC(=O)NC(CC(=O)O)C(=O)O)c3ccc([nH]3)C(c3ccc(C)cc3)c3ccc2[nH]3)cc1 (configuration not stated)
MBC (Staphylococcus aureus [1]): > 3 µg/mL | MIC (Staphylococcus aureus [2]): > 2.5 µg/mL

SMILES: Cc1ccc(C2c3ccc([nH]3)C(c3ccc(C)cc3)c3ccc([nH]3)C(c3ccc(N)cc3)c3ccc([nH]3)C(c3ccc(C)cc3)c3ccc2[nH]3)cc1 (configuration not stated)
MBC (Staphylococcus aureus [1]): > 3 µg/mL | MIC (Staphylococcus aureus [2]): > 2.5 µg/mL

SMILES: Cc1ccc(C2c3ccc([nH]3)C(c3ccc(C)cc3)c3ccc([nH]3)C(c3ccccc3NC(=O)C(N)CO)c3ccc([nH]3)C(c3ccc(C)cc3)c3ccc2[nH]3)cc1 (configuration not stated)
MIC (Staphylococcus aureus [2]): > 3 µg/mL

SMILES: Cc1ccc(C2c3ccc([nH]3)C(c3ccc(C)cc3)c3ccc([nH]3)C(c3ccc(OCCCC(=O)N(CCCN)CCCCN)cc3)c3ccc([nH]3)C(c3ccc(C)cc3)c3ccc2[nH]3)cc1 (configuration not stated)
MIC (Staphylococcus aureus [8]): 1 µg/mL (≈ 1.12 µM) | MBC (Staphylococcus aureus [9]): 1.5 µg/mL (≈ 1.68 µM)

SMILES: C=CC1=C(C)/C2=C/c3[nH]c(c(C)c3C=C)/C=c3\[nH]/c(c(CCC(=O)NCCCCN(CCCN)CCCCNCCCN)c3C)=C\C3=NC(CC1=N2)C(C)=C3CCC(=O)NCCCCN(CCCN)CCCCNCCCN (configuration not stated)
MBC (Staphylococcus aureus [11]): 1.5 µg/mL (≈ 1.39 µM) | MBC (Escherichia coli [12]): 2 µg/mL (≈ 1.86 µM) | MIC (Staphylococcus aureus [8]): 1 µg/mL (≈ 0.93 µM)

SMILES: Cc1ccc(C2c3ccc([nH]3)C(c3ccc(C)cc3)c3ccc([nH]3)C(c3ccc(OCCCC(=O)N(CCCN)CCCCNCCCN)cc3)c3ccc([nH]3)C(c3ccc(C)cc3)c3ccc2[nH]3)cc1 (configuration not stated)
MIC (Staphylococcus aureus [7]): 1.5 µg/mL (≈ 1.58 µM) | MBC (Staphylococcus aureus [1]): > 1.5 µg/mL

SMILES: Cc1ccc(C2c3ccc([nH]3)C(c3ccc(C)cc3)c3ccc([nH]3)C(c3ccc(NC(=O)C(N)CO)cc3)c3ccc([nH]3)C(c3ccc(C)cc3)c3ccc2[nH]3)cc1 (configuration not stated)
MIC (Staphylococcus aureus [2]): > 3 µg/mL

Further lines, with some results ahead:

MIC (Staphylococcus aureus [6]): 2 µg/mL (≈ 2.37 µM)
SMILES: Nc1ccc(C2c3ccc([nH]3)C(c3ccc(N)cc3)c3ccc([nH]3)C(c3ccccc3O[C@@H]3O[C@@H](CO)[C@@H](O)[C@H](O)[C@@H]3O)c3ccc([nH]3)C(c3ccc(N)cc3)c3ccc2[nH]3)cc1 (some centres not stated)
MBC (Staphylococcus aureus [1]): > 1.5 µg/mL

MIC (Staphylococcus aureus [7]): 1.5 µg/mL (≈ 1.78 µM)
SMILES: Nc1ccc(C2c3ccc([nH]3)C(c3ccc(N)cc3)c3ccc([nH]3)C(c3ccc(O[C@@H]4O[C@@H](CO)[C@@H](O)[C@H](O)[C@@H]4O)cc3)c3ccc([nH]3)C(c3ccc(N)cc3)c3ccc2[nH]3)cc1 (some centres not stated)
MBC (Staphylococcus aureus [1]): > 1.5 µg/mL

MIC (Staphylococcus aureus [7]): 1.5 µg/mL (≈ 1.21 µM)
SMILES: CC(N)C(=O)Nc1ccc(C2c3ccc([nH]3)C(c3ccc(O[C@@H]4O[C@@H](CO)[C@@H](O)[C@H](O)[C@@H]4O)cc3)c3ccc([nH]3)C(c3ccc(O[C@@H]4O[C@@H](CO)[C@@H](O)[C@H](O)[C@@H]4O)cc3)c3ccc([nH]3)C(c3ccc(O[C@@H]4O[C@@H](CO)[C@@H](O)[C@H](O)[C@@H]4O)cc3)c3ccc2[nH]3)cc1 (some centres not stated)
MBC (Staphylococcus aureus [1]): > 1.5 µg/mL

MIC (Staphylococcus aureus [8]): 1 µg/mL (≈ 0.87 µM)
SMILES: CC(N)C(=O)Nc1ccc(C2c3ccc([nH]3)C(c3ccc(O[C@@H]4O[C@@H](CO)[C@@H](O)[C@H](O)[C@@H]4O)cc3)c3ccc([nH]3)C(c3ccc(NC(=O)C(C)N)cc3)c3ccc([nH]3)C(c3ccc(O[C@@H]4O[C@@H](CO)[C@@H](O)[C@H](O)[C@@H]4O)cc3)c3ccc2[nH]3)cc1 (some centres not stated)
MBC (Staphylococcus aureus [9]): 1.5 µg/mL (≈ 1.31 µM)

MIC (Staphylococcus aureus [8]): 1 µg/mL (≈ 0.87 µM)
SMILES: CC(N)C(=O)Nc1ccc(C2c3ccc([nH]3)C(c3ccc(NC(=O)C(C)N)cc3)c3ccc([nH]3)C(c3ccc(O[C@@H]4O[C@@H](CO)[C@@H](O)[C@H](O)[C@@H]4O)cc3)c3ccc([nH]3)C(c3ccc(O[C@@H]4O[C@@H](CO)[C@@H](O)[C@H](O)[C@@H]4O)cc3)c3ccc2[nH]3)cc1 (some centres not stated)
MBC (Staphylococcus aureus [9]): 1.5 µg/mL (≈ 1.31 µM)

MIC (Staphylococcus aureus [8]): 1 µg/mL (≈ 0.855 µM)
SMILES: Nc1ccccc1C1c2ccc([nH]2)C(c2ccc(O[C@@H]3O[C@@H](CO)[C@@H](O)[C@H](O)[C@@H]3O)cc2)c2ccc([nH]2)C(c2ccc(O[C@@H]3O[C@@H](CO)[C@@H](O)[C@H](O)[C@@H]3O)cc2)c2ccc([nH]2)C(c2ccc(O[C@@H]3O[C@@H](CO)[C@@H](O)[C@H](O)[C@@H]3O)cc2)c2ccc1[nH]2 (some centres not stated)
MBC (Staphylococcus aureus [1]): > 1.5 µg/mL

MIC (Staphylococcus aureus [7]): 1.5 µg/mL (≈ 1.28 µM)
SMILES: Nc1ccc(C2c3ccc([nH]3)C(c3ccc(O[C@@H]4O[C@@H](CO)[C@@H](O)[C@H](O)[C@@H]4O)cc3)c3ccc([nH]3)C(c3ccc(O[C@@H]4O[C@@H](CO)[C@@H](O)[C@H](O)[C@@H]4O)cc3)c3ccc([nH]3)C(c3ccc(O[C@@H]4O[C@@H](CO)[C@@H](O)[C@H](O)[C@@H]4O)cc3)c3ccc2[nH]3)cc1 (some centres not stated)
MBC (Staphylococcus aureus [9]): 1.5 µg/mL (≈ 1.28 µM)

MIC (Staphylococcus aureus [10]): 0.5 µg/mL (≈ 0.496 µM)
SMILES: Nc1ccc(C2c3ccc([nH]3)C(c3ccc(O[C@@H]4O[C@@H](CO)[C@@H](O)[C@H](O)[C@@H]4O)cc3)c3ccc([nH]3)C(c3ccc(N)cc3)c3ccc([nH]3)C(c3ccc(O[C@@H]4O[C@@H](CO)[C@@H](O)[C@H](O)[C@@H]4O)cc3)c3ccc2[nH]3)cc1 (some centres not stated)
MBC (Staphylococcus aureus [9]): 1.5 µg/mL (≈ 1.49 µM)

MIC (Staphylococcus aureus [2]): > 3 µg/mL
SMILES: Nc1ccc(C2c3ccc([nH]3)C(c3ccc(N)cc3)c3ccc([nH]3)C(c3ccc(O[C@@H]4O[C@@H](CO)[C@@H](O)[C@H](O)[C@@H]4O)cc3)c3ccc([nH]3)C(c3ccc(O[C@@H]4O[C@@H](CO)[C@@H](O)[C@H](O)[C@@H]4O)cc3)c3ccc2[nH]3)cc1 (some centres not stated)
